# In patent US9708336B2, “Metallo-beta-lactamase inhibitors” (priority 2014, dated 2017):
# pIC50: −log10 of the molar value. Where two headings read alike, the source gives them in different places.
# How the values were obtained:
# NDM-1 = NDM-1 (Klebsiella pneumoniae, UniProt C7C422); test: biochemical; format: biochemical; details: read-out: NDM-1 IC50
# IMP-1 = IMP-1 (Serratia marcescens, UniProt P52699); test: biochemical; format: biochemical; details: read-out: IMP-1 IC50
# VIM-1 = VIM-1 (Pseudomonas aeruginosa (strain ATCC 15692 / DSM 22644 / CIP 104116 / JCM 14847 / LMG 12228 / 1C / PRS 101 / PAO1), UniProt A0A0F7KYQ8); test: Enzyme activity: determination of IC50, fluorescence assay with CCF2-FA substrate (VIM-1); format: biochemical
# [1] = tested on: Escherichia coli expressing NDM-1 (CLB30016); test: Antibiotic potentiation activity: synergistic concentration (MITC95) with imipenem, OD600 growth; format: cell-based; details: for Escherichia coli expressing NDM-1 (CLB 30016) MITC95: concentration giving 95% inhibition of bacterial growth
# Outline: (§1)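 Clinical MBL-producing strains (E. coli NDM-1, S. marcescens IMP-1, K. pneumoniae VIM-1) from overnight plates were diluted 1:100 into 1.1×CAMHB. Compound was tested with imipenem at 4 μg/ml (optionally 1 μg/ml) or without it. After 22–24 h at 35 °C, growth was read as OD600.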
# [2] = tested on: Klebsiella pneumoniae expressing VIM-1 (IHMA599644); test: as above; format: cell-based; details: for Klebsiella pneumoniae expressing VIM-1 (IHMA 599644) MITC95: concentration giving 95% inhibition of bacterial growth
# Outline: as §1
# [3] = tested on: Serratia marcescens expressing IMP-1 (CL5741); test: as above; format: cell-based; details: for Serratia marcescens expressing IMP-1 (CL5741) MITC95: concentration giving 95% inhibition of bacterial growth
# Outline: as §1
# [4] = NDM-1 enzyme, CCF2-FA fluorescence assay
# [5] = IMP-1 enzyme, CCF2-FA fluorescence assay
# [6] = VIM-1 enzyme, CCF2-FA fluorescence assay, read-out: VIM-1 IC50
# [7] = Escherichia coli expressing NDM-1 (CLB30016), 95% growth inhibition
# [8] = Klebsiella pneumoniae expressing VIM-1 (IHMA599644), 95% growth inhibition
# [9] = Serratia marcescens expressing IMP-1 (CL5741), 95% growth inhibition
# [10] = NDM-1 enzyme, CCF2-FA substrate
# [11] = IMP-1 enzyme, CCF2-FA substrate
# [12] = VIM-1 enzyme, CCF2-FA substrate, read-out: VIM-1 IC50
# [13] = (CLB30016, NDM-1), 95% growth inhibition
# [14] = Klebsiella pneumoniae IHMA599644 (VIM-1), 95% growth inhibition
# [15] = Serratia marcescens CL5741 (IMP-1), 95% growth inhibition
# [16] = fluorescence assay with CCF2-FA substrate
# [17] = fluorescence assay with CCF2-FA substrate, read-out: VIM-1 IC50
# [18] = CLB30016 (NDM-1), 95% inhibition of bacterial growth
# [19] = IHMA599644 (VIM-1), 95% inhibition of bacterial growth
# [20] = CL5741 (IMP-1), 95% inhibition of bacterial growth
# IMP-1, sequence (P52699 whole entry, looked up): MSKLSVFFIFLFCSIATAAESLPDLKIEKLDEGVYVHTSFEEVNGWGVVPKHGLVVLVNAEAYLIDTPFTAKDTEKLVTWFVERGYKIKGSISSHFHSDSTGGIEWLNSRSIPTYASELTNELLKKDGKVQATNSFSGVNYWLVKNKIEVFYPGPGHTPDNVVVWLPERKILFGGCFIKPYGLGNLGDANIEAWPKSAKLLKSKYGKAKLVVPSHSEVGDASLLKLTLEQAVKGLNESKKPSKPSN
# NDM-1, sequence (C7C422 whole entry, looked up, species assumed): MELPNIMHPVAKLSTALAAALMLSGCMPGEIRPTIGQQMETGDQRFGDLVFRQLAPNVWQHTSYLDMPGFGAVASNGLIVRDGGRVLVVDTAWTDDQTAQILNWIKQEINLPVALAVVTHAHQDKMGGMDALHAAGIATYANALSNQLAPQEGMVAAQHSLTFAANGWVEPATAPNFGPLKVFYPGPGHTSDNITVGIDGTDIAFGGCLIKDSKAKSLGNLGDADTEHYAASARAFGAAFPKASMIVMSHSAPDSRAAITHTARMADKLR
Structure (SMILES),pIC50 (NDM-1; [4]),pIC50 (IMP-1; [5]),pIC50 (VIM-1; [6]),"Escherichia coli MITC95 [1, 7] [µM]","Klebsiella pneumoniae MITC95 [2, 8] [µM]","Serratia marcescens MITC95 [3, 9] [µM]",pIC50 (NDM-1; [16]),pIC50 (IMP-1; [16]),pIC50 (VIM-1; [17]),also measured
"NS(=O)(=O)c1c(CCC2CNC2)ccc(-c2ccc(C3CCNCC3)cc2)c1-c1nn[nH]n1 [Example 466, 4-(2-(azetidin-3-yl)ethyl)-4′-(piperidin-4-yl)-2-(2H-tetrazol-5-yl)-[1,1′-biphenyl]-3-sulfonamide]",7.98,7.26,8.43,0.7813,1.563,1.563,,,,
"NS(=O)(=O)c1cccc(-c2ccc(CN3CC(O)C(F)C3)cc2)c1-c1nnn[nH]1 (stereo not drawn) [Example 396, 4′-[(3-fluoro-4-hydroxypyrrolidin-1-yl)methyl]-2-(1H-tetrazol-5-yl)biphenyl-3-sulfonamide]",8.49,7.65,6.74,1.172,100,1.172,,,,
"Nc1nc2c(-c3ccc(CCCO)c(S(N)(=O)=O)c3-c3nn[nH]n3)cccc2s1 [Example 533, 3-(2-Aminobenzo[d]thiazol-4-yl)-6-(3-hydroxypropyl)-2-(2H-tetrazol-5-yl)benzenesulfonamide]",,,,,,,,,,"pIC50 (NDM-1; [10]): 9.06; pIC50 (IMP-1; [11]): 7.78; pIC50 (VIM-1; [12]): 8.54; Escherichia coli MITC95 [1, 13]: 3.125 µM; Klebsiella pneumoniae MITC95 [2, 14]: 12.5 µM; Serratia marcescens MITC95 [3, 15]: 12.5 µM"
"NS(=O)(=O)c1cccc(-c2cccc3scnc23)c1-c1nnn[nH]1 [Example 422, 3-(Benzo[d]thiazol-4-yl)-2-(1H-tetrazol-5-yl)benzenesulfonamide]",8.88,7.25,7.65,3.125,100,25,,,,
"Nc1nc2c(F)cc(-c3ccc(C(F)(F)F)c(S(N)(=O)=O)c3-c3nnn[nH]3)cc2s1 [Example 743, 3-(2-amino-4-fluoro-1,3-benzothiazol-6-yl)-2-(1H-tetrazol-5-yl)-6-(trifluoromethyl)benzenesulfon-amide]",,,,,,,9.39,9.05,9.83,"Escherichia coli MITC95 [1, 18]: 3.125 µM; Klebsiella pneumoniae MITC95 [2, 19]: 6.25 µM; Serratia marcescens MITC95 [3, 20]: 6.25 µM"
"NS(=O)(=O)c1cccc(-c2ccc(CNCC(=O)NO)cc2)c1-c1nnn[nH]1 [Example 330, N-hydroxy-2-(((3′-sulfamoyl-2′-(1H-tetrazol-5-yl)-[1,1′-biphenyl]-4-yl)methyl)amino)acetamide]",7.90,6.93,6.40,1.563,50,4.688,,,,
"NS(=O)(=O)c1cccc(-c2ccc(CNCCO)cc2)c1-c1nnn[nH]1 [Example 390, 4′-{[(2-hydroxyethyl)amino]methyl}-2-(1H-tetrazol-5-yl)biphenyl-3-sulfonamide]",7.92,6.32,6.65,0.7813,62.5,6.25,,,,
"NC1CCC(c2ccc(CCC3CCNCC3)c(S(N)(=O)=O)c2-c2nn[nH]n2)CC1 (stereo not drawn) [Example 838, 3-(4-aminocyclohexyl)-6-[2-(4-piperidyl)ethyl]-2-(2H-tetrazol-5-yl)benzenesulfonamide]",,,,,,,7.17,5.77,7.21,"Escherichia coli MITC95 [1, 18]: 3.125 µM; Klebsiella pneumoniae MITC95 [2, 19]: 6.25 µM; Serratia marcescens MITC95 [3, 20]: 12.5 µM"
"CC1(O)CCCN(c2ccc(C(F)(F)F)c(S(N)(=O)=O)c2-c2nnn[nH]2)C1 (stereo not drawn) [Example 654, 3-(3-hydroxy-3-methylpiperidin-1-yl)-2-(1H-tetrazol-5-yl)-6-(trifluoromethyl)benzenesulfonamide]",,,,,,,,,,"pIC50 (NDM-1; [10]): 8.16; pIC50 (IMP-1; [11]): 7.71; pIC50 (VIM-1; [12]): 8.91; Escherichia coli MITC95 [1, 13]: 4.688 µM; Klebsiella pneumoniae MITC95 [2, 14]: 9.375 µM; Serratia marcescens MITC95 [3, 15]: 1.172 µM"
"NS(=O)(=O)c1cccc(C2CCCCC2)c1-c1nnn[nH]1 [Example 151, 3-cyclohexyl-2-(1H-tetrazol-5-yl)benzenesulfonamide]",,,,,,,8.90,7.50,7.50,Escherichia coli expressing NDM-1 (CLB 30016) MITC95 [1]: 1.172 µM; Klebsiella pneumoniae expressing VIM-1 (IHMA 599644) MITC95 [2]: 37.5 µM; Serratia marcescens expressing IMP-1 (CL5741) MITC95 [3]: 1.563 µM
"N#Cc1cccc(Cc2cccc(S(N)(=O)=O)c2-c2nnn[nH]2)c1 [Example 152, 3-(3-cyanobenzyl)-2-(1H-tetrazol-5-yl)benzenesulfonamide]",,,,,,,7.85,6.60,7.04,Escherichia coli expressing NDM-1 (CLB 30016) MITC95 [1]: 4.688 µM; Klebsiella pneumoniae expressing VIM-1 (IHMA 599644) MITC95 [2]: 200 µM; Serratia marcescens expressing IMP-1 (CL5741) MITC95 [3]: 12.5 µM
"COCc1cc(CCc2ccc(C(F)(F)F)c(S(N)(=O)=O)c2-c2nn[nH]n2)cnc1N [Example 512, 3-(2-(6-Amino-5-(methoxymethyl)pyridin-3-yl)ethyl)-2-(2H-tetrazol-5-yl)-6-(trifluoromethyl)benzenesulfonamide]",,,,,,,,,,"pIC50 (NDM-1; [10]): 6.79; pIC50 (IMP-1; [11]): 7.34; pIC50 (VIM-1; [12]): 8.41; Escherichia coli MITC95 [1, 13]: 9.375 µM; Klebsiella pneumoniae MITC95 [2, 14]: 2.344 µM; Serratia marcescens MITC95 [3, 15]: 0.9766 µM"
"NS(=O)(=O)c1cccc(-c2cnc(NCCO)nc2)c1-c1nnn[nH]1 [Example 125, 3-(2-((2-hydroxyethyl)amino)pyrimidin-5-yl)-2-(1H-tetrazol-5-yl)benzenesulfonamide]",,,,,,,8.18,6.49,,"pIC50 (VIM-1; VIM-1 IC50, fluorescence assay with CCF2-FA substrate): 6.76; Escherichia coli expressing NDM-1 (CLB 30016) MITC95 [1]: 1.953 µM; Klebsiella pneumoniae expressing VIM-1 (IHMA 599644) MITC95 [2]: 25 µM; Serratia marcescens expressing IMP-1 (CL5741) MITC95 [3]: 9.375 µM"
"NS(=O)(=O)c1cccc(-c2ccc(-n3cccn3)nc2)c1-c1nnn[nH]1 [Example 117, 3-(6-(1H-pyrazol-1-yl)pyridin-3-yl)-2-(1H-tetrazol-5-yl)benzenesulfonamide]",,,,,,,8.29,6.87,6.87,Escherichia coli expressing NDM-1 (CLB 30016) MITC95 [1]: 1.172 µM; Klebsiella pneumoniae expressing VIM-1 (IHMA 599644) MITC95 [2]: 100 µM; Serratia marcescens expressing IMP-1 (CL5741) MITC95 [3]: 6.25 µM
"Nc1cnc(-c2cccc(S(N)(=O)=O)c2-c2nnn[nH]2)cn1 [Example 402, 3-(5-aminopyrazin-2-yl)-2-(1H-tetrazol-5-yl)benzenesulfonamide]",8.09,6.41,6.46,0.3906,25,6.25,,,,
"N=CN1CCC(N)(c2ccc(-c3ccc(C(F)(F)F)c(S(N)(=O)=O)c3-c3nn[nH]n3)cc2)CC1 [Example 437, 4′-(4-amino-1-(iminomethyl)piperidin-4-yl)-2-(2H-tetrazol-5-yl)-4-(trifluoromethyl)-[1,1′-biphenyl]-3-sulfonamide]",8.10,8.11,8.10,0.3906,3.125,0.3906,,,,
